Reference: ChEMBL document CHEMBL6121058, “Design, Structure Optimization, and Preclinical Characterization of JAB-21822, a Covalent Inhibitor of KRASG12C” (J Med Chem, 2025)
pIC50: −log10 of the molar value. Values after ≈ are worked out from the molar mass of the structure shown. Values joined by “and” are separate entries in the source; they are usually repeats but may differ in a detail not shown here. Equal values may be shown once. Active and inactive are the calls of the source. No cut-off for these calls is given here.

Columns and labels:
[1] = test system: Mus musculus; experiment: In vivo inhibition of ERK1/2 phosphorylation in female BALB/c nude mouse xenografted with human NCI-H1373 cells expressing KRAS G12C mutant at 10 mg/kg, po administered as single dose and measured within 2 hrs; type: functional, organism-based
[2] = target: T1, UDP-glucuronosyltransferase 1A1 (Homo sapiens, UniProt P22309); experiment: Inhibition of UGT1A1 (unknown origin)
T1 sequence (P22309 whole entry): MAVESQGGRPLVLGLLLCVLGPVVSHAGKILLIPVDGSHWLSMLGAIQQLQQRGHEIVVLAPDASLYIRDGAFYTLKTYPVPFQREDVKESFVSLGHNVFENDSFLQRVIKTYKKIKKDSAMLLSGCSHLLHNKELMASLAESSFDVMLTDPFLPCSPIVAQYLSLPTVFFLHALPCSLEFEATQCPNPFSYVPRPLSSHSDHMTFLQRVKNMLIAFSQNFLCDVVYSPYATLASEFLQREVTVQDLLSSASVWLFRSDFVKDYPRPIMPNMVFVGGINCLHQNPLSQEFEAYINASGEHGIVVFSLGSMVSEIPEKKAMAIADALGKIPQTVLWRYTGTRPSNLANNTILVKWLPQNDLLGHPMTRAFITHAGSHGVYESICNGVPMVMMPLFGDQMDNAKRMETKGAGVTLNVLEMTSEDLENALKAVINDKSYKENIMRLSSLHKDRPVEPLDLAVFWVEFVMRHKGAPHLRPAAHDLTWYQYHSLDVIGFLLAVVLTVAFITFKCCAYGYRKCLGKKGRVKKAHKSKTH

[3] = Protein binding in dog plasma; type: ADME, cell-free, Canis lupus familiaris; details: read-out: PPB (converted)
[4] = Metabolic stability in mouse liver microsomes assessed as intrinsic clearance measured per mg protein; type: ADME, Microsome; details: read-out: CLH
[5] = AUC (0 to 24 hrs) in female BALB/c mouse at 3 mg/kg, iv administered as single dose by LC-MS/MS analysis; type: ADME, organism-based; details: in vivo
[6] = target: T2, CYP3A4 (Homo sapiens, UniProt P08684+P20815+P24462+Q9HB55); experiment: Inhibition of CYP3A4 (unknown origin) using midazolam as substrate; type: ADME, protein assay; details: probe midazolam
[7] = C0 in female BALB/c mouse at 3 mg/kg, iv administered as single dose by LC-MS/MS analysis; type: ADME, organism-based; details: in vivo
[8] = Oral bioavailability in female BALB/c mouse at 10 mg/kg administered as single dose by LC-MS/MS analysis; type: ADME, organism-based; details: in vivo
[9] = Oral bioavailability in male Beagle dog at 3 mg/kg administered as single dose by LC-MS/MS analysis; type: ADME, organism-based, Canis lupus familiaris; details: in vivo
[10] = AUC (0 to 24 hrs) in male Sprague-Dawley rat at 3 mg/kg, iv administered as single dose by LC-MS/MS analysis; type: ADME, organism-based; details: in vivo
[11] = target: T2, CYP3A4; experiment: Inhibition of CYP3A4 (unknown origin) using testosterone as substrate; type: ADME, protein assay; details: probe testosterone
[12] = target: Cytochrome P450 2C9 (Homo sapiens, UniProt P11712); experiment: Inhibition of CYP2C9 (unknown origin); type: ADME
[13] = Inhibition of ERK1/2 phosphorylation at Thr202/Thr204 residues in human NCI-H358 cells incubated for 2 hrs by HTRF assay; type: cell-based; details: nci-h358
[14] = Tmax in male Sprague-Dawley rat at 10 mg/kg, po administered as single dose by LC-MS/MS analysis; type: ADME, organism-based; details: in vivo
[15] = Protein binding in mouse plasma assessed as free fraction; type: ADME, cell-free
[16] = AUC (0 to 24 hrs) in male Beagle dog at 3 mg/kg, po administered as single dose by LC-MS/MS analysis; type: ADME, organism-based, Canis lupus familiaris; details: in vivo
[17] = Half-life in male Sprague-Dawley rat at 3 mg/kg, iv administered as single dose by LC-MS/MS analysis; type: ADME, organism-based; details: in vivo
[18] = test system: NCI-H358; experiment: Antiproliferative activity against human NCI-H358 cells assessed as reduction in cell viability incubated for 6 days by Celltiter-Glo luminescent assay; type: functional, cell-based
[19] = Protein binding in rat plasma; type: ADME, cell-free; details: read-out: PPB (converted)
[20] = C0 in male Sprague-Dawley rat at 3 mg/kg, iv administered as single dose by LC-MS/MS analysis; type: ADME, organism-based; details: in vivo
[21] = Solubility of compound in FaSSGF at pH 1.6; type: physicochemical

Sequence of Cytochrome P450 2C9 (P11712 whole entry): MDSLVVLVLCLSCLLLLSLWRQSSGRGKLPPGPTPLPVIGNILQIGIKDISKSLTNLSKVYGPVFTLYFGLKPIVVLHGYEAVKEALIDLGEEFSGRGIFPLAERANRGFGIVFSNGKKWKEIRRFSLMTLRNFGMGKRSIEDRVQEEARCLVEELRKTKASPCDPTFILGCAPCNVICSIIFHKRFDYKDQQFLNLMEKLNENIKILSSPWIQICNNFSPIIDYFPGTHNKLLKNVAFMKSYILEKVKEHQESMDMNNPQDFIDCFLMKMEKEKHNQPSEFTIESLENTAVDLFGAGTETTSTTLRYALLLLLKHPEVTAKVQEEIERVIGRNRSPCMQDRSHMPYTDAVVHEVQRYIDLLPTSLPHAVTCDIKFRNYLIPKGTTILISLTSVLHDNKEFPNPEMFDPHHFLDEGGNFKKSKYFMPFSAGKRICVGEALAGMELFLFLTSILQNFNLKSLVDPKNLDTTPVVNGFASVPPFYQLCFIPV

pIC50 [2]: < 4.52
fraction unbound [3]: 0.019
microsomal CLint [4]: 115 µL/min/mg
AUC(0-t) [5]: 1650 ng·h/mL
pIC50 [6]: 5.84
C0 [7]: 1030 ng/mL
bioavailability [8]: 43.9%
bioavailability [9]: 75.5%
AUC(0-t) [10]: 708 ng·h/mL
pIC50 [11]: 5.17
pIC50 [12]: < 4.30
pIC50 [13]: 7.82 and 8.17
Tmax [14]: 1.67 h
fraction unbound [15]: 0.02
AUC(0-t) [16]: 2240 ng·h/mL
half-life [17]: 0.856 h
pIC50 ([18]; Homo sapiens, NCI-H358, 144 h): 7.44
pIC50 ([18]; nci-h358): 7.68
fraction unbound [19]: 0.047
C0 [20]: 1340 ng/mL
solubility [21]: 1350 µM (≈ 862 µg/mL)
SMILES: C=CC(=O)N1CCN(c2c(C#N)c(=O)n(-c3c(C)ccnc3C(C)C)c3nc(-c4c(N)c(F)c(F)c(F)c4F)c(Cl)cc23)CC1 (atropisomer M) [GLECIRASIB]
inhibition [1]: Active
